Measurements published in PMC6199744, “Development of Chemical Proteomics for the Folateome and Analysis of the Kinetoplastid Folateome” (ACS Infectious Diseases, 2018).

Test system: L. major lysate proteins
Assay: Multitargeted bead mixture chemoproteomics, single concentration competition, proteome-wide
Type: binding

Nc1nc2c(c(=O)[nH]1)N(C=O)C(CNc1ccc(C(=O)N[C@@H](CCC(=O)O)C(=O)O)cc1)CN2 (stereo partly drawn) [LEU, leucovorin]
fold change relative to vehicle control (protein LMJF.35.1220, SHORT CHAIN DEHYDROGENASE, PUTATIVE): 1.29
fold change relative to vehicle control (protein LMJF.35.1380, MITOCHONDRIAL PROCESSING PEPTIDASE, BETA SUBUNIT, PUTATIVE): 0.96
fold change vs vehicle control (protein LMJF.35.1830 HY[…], CONSERVED): 1.03
fold change vs vehicle control (protein LMJF.35.3340 6-phosphogluconate dehydrogenase): 1.03
fold change (protein LMJF.35.3700 GIM5A PROTEIN, PUTATIVE,GLYCOSOMAL MEMBRANE PROTEIN, vehicle control = 1): 0.87
fold change vs vehicle control (protein LMJF.35.3760 60S RIBOSOMAL PROTEIN L27A/L29, PUTATIVE): 1.05
fold change relative to vehicle control (protein LMJF.35.3840, […] 2 SUBUNIT, PUTATIVE): 1.16
fold change vs vehicle control (protein LMJF.35.3860 T-COMPLEX PROTEIN 1, ETA SUBUNIT, PUTATIVE): 0.98
fold change (protein LMJF.35.4420 MITOCHONDRIAL PHOSPHATE TRANSPORTER, PUTATIVE, vehicle control = 1): 1
fold change relative to vehicle control (protein LMJF.35.4880, HYPOTHETICAL PROTEIN, CONSERVED (TPR repeat, putative)): 1.3
fold change relative to vehicle control (protein LMJF.35.5330, ISOPENTENYL-D[…]-ISOMERASE, PUTATIVE): 1.06
fold change relative to vehicle control (protein LMJF.36.0070, STRESS-INDUCIBLE PROTEIN STI1 HOMOLOG): 1.81
fold change (protein LMJF.36.0480 HYPOTHETICAL PROTEIN, CONSERVED, vehicle control = 1): 1
fold change vs vehicle control (protein LMJF.36.0620 HYPOTHETICAL PROTEIN, CONSERVED): 0.9
fold change vs vehicle control (protein LMJF.36.0930 40S RIBOSOMAL PROTEIN S18, PUTATIVE): 1.19
fold change vs vehicle control (protein LMJF.36.0990 40S RIBOSOMAL PROTEIN S10, PUTATIVE): 0.91
fold change (protein LMJF.36.1140 SHORT CHAIN 3-HYDROXYACYL-COA DEHYDROGENASE, PUTATIVE, vehicle control = 1): 0.94
fold change relative to vehicle control (protein LMJF.36.1260, FRUCTOSE-1,6-BI[…]): 1.16
fold change (protein LMJF.36.1340 N-ACETYLTRANSFERASE SUBUNIT NAT1, PUTATIVE, vehicle control = 1): 0.92
fold change vs vehicle control (protein LMJF.36.1650 PROTEASOME BETA 5 SUBUNIT, PUTATIVE): 0.98
fold change relative to vehicle control (protein LMJF.36.2380, STEROL 24-C-METHYLTRANSFERASE, PUTATIVE): 1.04
fold change vs vehicle control (protein LMJF.36.2950 SUCCINYL-COA LIGASE GDP-FORMING] BETA-CHAIN, PUTATIVE): 0.96
fold change vs vehicle control (protein LMJF.36.3210 14-3-3 PROTEIN-LIKE PROTEIN): 1.08
fold change vs vehicle control (protein LMJF.36.3410 SHORT CHAIN DEHYDROGENASE-LIKE PROTEIN): 0.97
fold change (protein LMJF.36.3460 HYPOTHETICAL PROTEIN, CONSERVED (NIPSNAP, putative), vehicle control = 1): 0.75
fold change (protein LMJF.36.3580 HYPOTHETICAL PROTEIN, CONSERVED (Protein of unknown function (DUF2009), putative), vehicle control = 1): 0.85
fold change (protein LMJF.36.3750 40S RIBOSOMAL PROTEIN S27-1, PUTATIVE, vehicle control = 1): 0.85
fold change vs vehicle control (protein LMJF.36.3910 S-ADENOSYLHOMOCYSTEINE HYDROLASE): 0.94
fold change vs vehicle control (protein LMJF.36.5010 40S RIBOSOMAL PROTEIN SA, PUTATIVE): 1.03
fold change vs vehicle control (protein LMJF.36.5130 HY[…], CONSERVED): 1.01
fold change vs vehicle control (protein LMJF.36.5150 HYPOTHETICAL PROTEIN, CONSERVED): 0.93
fold change relative to vehicle control (protein LMJF.36.5380, NADH DEHYDROGENASE, PUTATIVE): 1.07
fold change vs vehicle control (protein LMJF.36.5390 PHOSPHORIBOSYLPYROPHOSPHATE SYNTHETASE, PUTATIVE): 0.99
fold change vs vehicle control (protein LMJF.36.5620 ISOLEUCYL-TRNA SYNTHETASE, PUTATIVE): 0.94
fold change (protein LMJF.36.6430 PROTEIN TRANSPORT PROTEIN SEC23-LIKE PROTEIN, vehicle control = 1): 1.17
fold change vs vehicle control (protein LMJF.36.6760 HYPOTHETICAL PROTEIN, CONSERVED): 0.87
fold change relative to vehicle control (protein LMJF.[…], MIT[…] BETA SUBUNIT, PUTATIVE): 1.14
fold change relative to vehicle control (protein LMJF.[…], POLY(A) EXPORT PROTEIN, PUTATIVE): 1.24
fold change (vs vehicle control, protein LINJ.20.0630 CYTIDINE TRIPHOSPHATE SYNTHASE, PUTATIVE,CTP SYNTHASE, PUTATIVE): 0.91
fold change (vs vehicle control, protein LINJ.20.1390 COATOMER BETA SUBUNIT, PUTATIVE): 0.96
fold change (vs vehicle control, protein LMJF.05.1140 VACUOLAR ATPASE SUBUNIT-LIKE PROTEIN): 0.75
fold change (vs vehicle control, protein LMJF.07.1090 DELTA-5 FATTY ACID DESATURASE): 0.88
fold change (vs vehicle control, protein LMJF.09.0220 HYPOTHETICAL PROTEIN, CONSERVED): 0.73
fold change (vs vehicle control, protein LMJF.11.1030 HYPOTHETICAL PROTEIN, CONSERVED): 0.86
fold change (vs vehicle control, protein LMJF.14.0640 FATTY ACID ELONGASE, PUTATIVE): 0.71
fold change (vs vehicle control, protein LMJF.14.0705 FATTY ACID ELONGASE, PUTATIVE): 0.92
fold change (vs vehicle control, protein LMJF.14.1120 KINESIN K39, PUTATIVE): 0.96
fold change (vs vehicle control, protein LMJF.16.1610 PROHIBITIN): 1.01
fold change (vs vehicle control, protein LMJF.17.0010 HYPOTHETICAL PROTEIN, CONSERVED): 0.94
fold change (vs vehicle control, protein LMJF.18.1130 RAS-RELATED PROTEIN RAB-5, PUTATIVE): 0.82
fold change (vs vehicle control, protein LMJF.19.1420 CYSTEINE PEPTIDASE A (CPA)): 0.84
fold change (vs vehicle control, protein LMJF.21.0280 HY[…], CONSERVED): 0.97
fold change (vs vehicle control, protein LMJF.22.1560 40S RIBOSOMAL PROTEIN L14, PUTATIVE): 0.93
fold change (vs vehicle control, protein LMJF.23.1220 T-COMPLEX PROTEIN 1, GAMMA SUBUNIT, PUTATIVE): 0.94
fold change (vs vehicle control, protein LMJF.24.0370 ASPARTATE AMINOTRANSFERASE, PUTATIVE): 0.99
fold change (vs vehicle control, protein LMJF.25.1770 ENOYL-COA REDUCTASE, PUTATIVE): 0.97
fold change (vs vehicle control, protein LMJF.26.0170 60S RIBOSOMAL PROTEIN L7, PUTATIVE): 0.85
fold change (vs vehicle control, protein LMJF.26.1550 TRI[…] ALPHA SUBUNIT, MIT[…]-LIKE PROTEIN): 1.09
fold change (vs vehicle control, protein LMJF.26.1610 PROLINE OXIDASE, MITOCHONDRIAL PRECURSOR-LIKE PROTEIN): 0.79
fold change (vs vehicle control, protein LMJF.28.1950 X-PRO, DIPEPTIDYL-PEPTIDASE,SERINE PEPTIDASE, CLAN SC, FAMILY S15, PUTATIVE): 0.96
fold change (vs vehicle control, protein LMJF.31.1070 BIOTIN/LIPOATE PROTEIN LIGASE-LIKE PROTEIN): 0.88
fold change (vs vehicle control, protein LMJF.32.1370 HY[…], CONSERVED): 0.92
fold change (vs vehicle control, protein LMJF.34.0490 IMPORTIN BETA-1 SUBUNIT, PUTATIVE): 1.14
fold change (vs vehicle control, protein LMJF.34.4060 UBIQUITIN HYDROLASE, PUTATIVE,CYSTEINE PEPTIDASE, CLAN CA, FAMILY C19, PUTATIVE): 0.88
fold change (vs vehicle control, protein LMJF.36.1600 PROTEASOME ALPHA 1 SUBUNIT, PUTATIVE): 0.98
fold change (vs vehicle control, protein LMJF.[…] RIBOSOMAL PROTEIN S7, PUTATIVE): 0.99
